Legend:
CUL3 = assay: Co-IP of Myc-CUL3 with HA-fused NPR1 or variants; format: binding, Arabidopsis thaliana; conditions: for CUL3 pull-down signal in co-IP: 1 mM SA for 5 hr
[1] = system: total protein ubiquitination; assay: Total ubiquitination in N. benthamiana expressing CUL3 and NPR1 or sim3; format: cell-based, Nicotiana benthamiana
Description: Protein analysis and IP. Recombinant protein analysis was performed using transient expression in N. benthamiana, or stable over-expression in transgenic Arabidopsis, or expression in E. coli. Total protein extraction from plants was performed by homogenizing leaf tissue in the plant extraction buffer [50 mM Tris-HCl (pH 7.5), 150 mM NaCl, 5 mM EDTA, 0.2% Triton X-100, 0.2% Nonidet P-40] supplemented with 1 mM PMSF, 100 μM MG132, and EDTA-free protease inhibitor cocktail (Roche). For ubiquitinated protein analysis in plants, 100 μM of DUB (deubiquitinase) inhibitor (LifeSensors) and 10 mM NEM were added. Next, the lysates were cleared by centrifugation at 14,000 rpm for 15 min followed by filtering through a 0.2 μm filter. […] Pull-downs or IP experiments were done on total protein extracts by incubating protein samples in the lysis buffer overnight with indicated affinity tag or antibody conjugated to agarose or magnetic beads: GFP-trap agarose beads (Chromotek) for GFP fusions; RFP-trap agarose beads (Chromotek) for mCherry fusions; anti-HA magnetic beads (ThermoFisher) for HA tag fusions; anti-DYKDDDDK coupled magnetic agarose (ThermoFisher) for FLAG tag fusions; and glutathione magnetic agarose (ThermoFisher) for GST fusions. Unless otherwise indicated, after pull-down/IP, beads were washed 3 times and proteins were eluted by boiling in the 2×SDS sample buffer. […]

FLAG-WRKY70 = assay: NPR1-CRL3 ubiquitination cascade reconstituted in E. coli; format: biochemical, Arabidopsis thaliana; conditions: 1 mM sodium salicylate

Molecule | NPR1-CUL3 and sim3-CUL3 interaction under dose response to SA (CUL3; 0-1 mM SA, 5 hr) | total protein ubiquitination under dose response to SA ([1]; 3 mM SA) | CUL3 pull-down signal in co-IP (CUL3) | ubiquitination of WRKY70 in reconstituted NPR1-CRL3 cascade (FLAG-WRKY70) | baseline SA-dependent ubiquitination ([1]; compared with NPR1)
O=C(O)c1ccccc1O [SA, salicylic acid] | increase in the interaction | reduction in ubiquitination | – | – | –
NPR1: wild-type Arabidopsis thaliana NPR1 protein, positive regulator of systemic acquired resistance | – | – | weak pull-down signal of CUL3 | could mediate ubiquitination of WRKY70 | –
sim3: SUMOylation-deficient mutant of NPR1 (protein, left off: small tags and cut ends, SUMOylation-deficient mutant of NPR1) MDTTIDGFADSYEISSTSFVATDNTDSSIVYLAAEQVLTGPDVSALQLLSNSFESVFDSPDDFYSDAKLVLSDGREVSFHRCVLSARSSFFKSALAAAKKEKDSNNTAAVKLELKEIAKDYEVGFDSVVTVLAYVYSSRVRPPPKGVSECADENCCHVACRPAVDFMLEVLYLAFIFKIPELITLYQRHLLDVVDKVVIEDTLVILKLANICGKACMKLLDRCKEIIVKSNVDMVSLEKSLPEELVKEIIDRRKELGLEVPKVKKHVSNVHKALDSDDIELVKLLLKEDHTNLDDACALHFAVAYCNVKTATDLLKLDLADVNHRNPRGYTVLHVAAMRKEPQLAASALEKGASASEATLEGRTALMIAKQATMAVECNNIPEQCKHSLKGRLCVEILEQEDKREQIPRDVPPSFAVAADELKMTLLDLENRVALAQRLFPTEAQAAMEIAEMKGTCEFIVTSLEPDRLTGTKRTSPGVKIAPFRILEEHQSRLKALSKTVELGKRFFPRCSAVLDQIMNCEDLTQLACGEDDTAEKRLQKKQRYMEIQETLKKAFSEDNLELGNSSLTDSTSSTSKSTGGKRSNRKLSHRRR | – | – | significantly stronger CUL3 pull-down signals | could mediate ubiquitination of WRKY70 | lower
S55/59D: phosphomimic mutant of NPR1 at S55/59 (protein, left off: small tags and cut ends) MDTTIDGFADSYEISSTSFVATDNTDSSIVYLAAEQVLTGPDVSALQLLSNSFEDVFDDPDDFYSDAKLVLSDGREVSFHRCVLSARSSFFKSALAAAKKEKDSNNTAAVKLELKEIAKDYEVGFDSVVTVLAYVYSSRVRPPPKGVSECADENCCHVACRPAVDFMLEVLYLAFIFKIPELITLYQRHLLDVVDKVVIEDTLVILKLANICGKACMKLLDRCKEIIVKSNVDMVSLEKSLPEELVKEIIDRRKELGLEVPKVKKHVSNVHKALDSDDIELVKLLLKEDHTNLDDACALHFAVAYCNVKTATDLLKLDLADVNHRNPRGYTVLHVAAMRKEPQLILSLLEKGASASEATLEGRTALMIAKQATMAVECNNIPEQCKHSLKGRLCVEILEQEDKREQIPRDVPPSFAVAADELKMTLLDLENRVALAQRLFPTEAQAAMEIAEMKGTCEFIVTSLEPDRLTGTKRTSPGVKIAPFRILEEHQSRLKALSKTVELGKRFFPRCSAVLDQIMNCEDLTQLACGEDDTAEKRLQKKQRYMEIQETLKKAFSEDNLELGNSSLTDSTSSTSKSTGGKRSNRKLSHRRR | – | – | very little signal | – | –

Reference: patent US20230227838A1, “ENHANCED CELL SURVIVAL AGAINST BIOTIC AND ABIOTIC STRESSES THROUGH SALICYLICK ACID-INDUCED NPR1 CONDENSATES” (priority 2020, published 2023)
